“Also recorded” adds a separate entry of the source.
Legend:
human PBMC [1] = experiment: Test compound induced cytokine secretion in human PBMC without LPS, 10 or 26 hours (Phase 1); details: 100 mM (so in the source), 10 hours, no LPS
Description: Secretion of the cytokines TNF-α (A), IL-1β (B) and IL-6 (C) were measured in supernatant of PBMC cultured in the presence of test compounds using a Luminex platform with the Milliplex MAP Human High Sensitivity T Cell Panel Immunology Multiplex Assay. Results are represented as a mean from 3 separate donors in pg/mL.
Whole blood was collected from 3 human donors and peripheral blood mononuclear cells (PBMC) were isolated using the Ficoll-Paque density gradient method. PBMC were then plated and left untouched for 2 hours to account for a 2 hours pretreatement period (see below for details), and incubated for 8 or 24 hours in a humidified incubator set to maintain 37° C. with 5% CO2, with different concentrations of LPS as per Table 11 in order to determine the optimal stimulation conditions to detect cytokine release. […] RPMI medium alone or supplemented with 0.1% DMSO (to mimic treatment conditions) were used as negative controls.
At the end of the incubation period, supernatant samples were recovered and stored at −80° C. until analysis (in duplicate) using a Luminex platform with the Milliplex MAP Human High Sensitivity T Cell Panel Immunology Multiplex Assay (Cat. No. HSTCMAG-28SK) with the following selected cytokines of interest: IL-1, IL-2, IL-6, IFN-g and TNF-α. Each assay was defined by one calibration curve and 2 sets of QCs and the results were expressed as pg/mL.

human PBMC [2] = experiment: LPS stimulated cytokine secretion in human PBMC pretreated with compounds (Phase 2); type: cell-based; parameters: TNF-α concentration in supernatant / IL-1β concentration in supernatant / IL-6 concentration in supernatant / IL-2 concentration in supernatant / IFN-g concentration in supernatant: unit of the concentration uncertain; details: for Effect on LPS stimulated secretion of IL-1b / Effect on LPS stimulated secretion of IL-6: 200 mM (so in the source), 2 h pretreatment, 1 ng/mL LPS 8 hours; for IL-2 concentration in supernatant / TNF-α concentration in supernatant / IL-1β concentration in supernatant / IFN-g concentration in supernatant / IL-6 concentration in supernatant: 8-hour 1 ng/mL LPS stimulation; for IL-2 concentration in supernatant: LLOQ = 1.698 pg/mL; for TNF-α concentration in supernatant: LLOQ = 2.018 pg/mL; for IL-1β concentration in supernatant: LLOQ = 2.299 pg/mL; for IFN-g concentration in supernatant: LLOQ = 2.792 pg/mL; for IL-6 concentration in supernatant: LLOQ = 0.831
Description: Results are represented as fold-change relative to LPS treatment alone for each cytokine calculated by means from 3 separate donors.
RPMI medium alone, RPMI supplemented with 0.2% DMSO (to mimic treatment conditions) or LPS stimulation alone were used as controls.
Except for the two negative control conditions, all 3 donors responded to all experimental conditions tested with the secretion of TNF-α, IL-1β, and IL-6 albeit with a high degree of variability.

## O=C(O)c1cc(O)c(O)c(O)c1 [Gallic Acid, Gallic acid]
Human PBMC [1]
  TNF-α, IL-1β, and/or IL-6 production, compound alone: minor increases
Human PBMC [2]
  Effect on LPS stimulated secretion of IL-1b: inhibition
  Effect on LPS stimulated secretion of IL-6: inhibition
Human PBMC [2]; listed as gallic acid
  Effect on LPS stimulated secretion of IL-1b: decrease; also recorded: inhibits
  Effect on LPS stimulated secretion of IL-6: decrease; also recorded: inhibits
Human PBMC [2]; Donor 1, 10 (unit uncertain)
  IL-2 concentration in supernatant: <LLOQ
  TNF-α concentration in supernatant: 2295.37 pg/mL
  IL-1β concentration in supernatant: 4009.57 pg/mL
  IFN-g concentration in supernatant: <LLOQ
  IL-6 concentration in supernatant: 1244.44 pg/mL
Human PBMC [2]; Donor 1, 100 (unit uncertain)
  IL-2 concentration in supernatant: <LLOQ
  TNF-α concentration in supernatant: 2673.83 pg/mL
  IL-1β concentration in supernatant: 2029.63 pg/mL
  IFN-g concentration in supernatant: <LLOQ
  IL-6 concentration in supernatant: 776.23 pg/mL
Human PBMC [2]; Donor 1, 200 (unit uncertain)
  IL-2 concentration in supernatant: <LLOQ
  TNF-α concentration in supernatant: 1973.87 pg/mL
  IL-1β concentration in supernatant: 905.16 pg/mL
  IFN-g concentration in supernatant: <LLOQ
  IL-6 concentration in supernatant: 466.09 pg/mL
Human PBMC [2]; Donor 2, 10 (unit uncertain)
  IL-2 concentration in supernatant: <LLOQ
  TNF-α concentration in supernatant: 924.89 pg/mL
  IL-1β concentration in supernatant: 2259.03 pg/mL
  IFN-g concentration in supernatant: <LLOQ
  IL-6 concentration in supernatant: 547.26 pg/mL
Human PBMC [2]; Donor 2, 100 (unit uncertain)
  IL-2 concentration in supernatant: <LLOQ
  TNF-α concentration in supernatant: 2001.65 pg/mL
  IL-1β concentration in supernatant: 1867.42 pg/mL
  IFN-g concentration in supernatant: <LLOQ
  IL-6 concentration in supernatant: 694.6 pg/mL
Human PBMC [2]; Donor 2, 200 (unit uncertain)
  IL-2 concentration in supernatant: <LLOQ
  TNF-α concentration in supernatant: 1867.55 pg/mL
  IL-1β concentration in supernatant: 858.76 pg/mL
  IFN-g concentration in supernatant: <LLOQ
  IL-6 concentration in supernatant: 426.3 pg/mL
Human PBMC [2]; Donor 3, 10 (unit uncertain)
  IL-2 concentration in supernatant: <LLOQ
  TNF-α concentration in supernatant: 4990.73 pg/mL
  IL-1β concentration in supernatant: 4065.13 pg/mL
  IFN-g concentration in supernatant: <LLOQ
  IL-6 concentration in supernatant: 547.26 pg/mL
Human PBMC [2]; Donor 3, 100 (unit uncertain)
  IL-2 concentration in supernatant: <LLOQ
  TNF-α concentration in supernatant: 3070.21 pg/mL
  IL-1β concentration in supernatant: 1788.4 pg/mL
  IFN-g concentration in supernatant: <LLOQ
  IL-6 concentration in supernatant: 694.6 pg/mL
Human PBMC [2]; Donor 3, 200 (unit uncertain)
  IL-2 concentration in supernatant: <LLOQ
  TNF-α concentration in supernatant: 4121.3 pg/mL
  IL-1β concentration in supernatant: 1478.91 pg/mL
  IFN-g concentration in supernatant: <LLOQ
  IL-6 concentration in supernatant: 426.3 pg/mL

Source: patent publication US12569509B2, “Method and composition for preventing and treating viral infections” (priority 2017, dated 2026)
